Source: a melting point compilation (Tetko et al.; mined from patent text by program, amines drawn as free bases though some values may be those of a salt)

| SMILES | melting point |
| --- | --- |
| COc1ccc(S(=O)(=O)NCCCCCCCC(=O)O)cc1 | 102 to 103 °C |
| COC(=O)C12COc3cc(C(F)(F)F)ccc3C1=NN(C(=O)Nc1ccc(Cl)cn1)C2 (configuration not stated) | 196 to 198 °C |
| O=c1[nH]c(-c2ccc(C(F)(F)F)cc2C(F)(F)F)nn1-c1cc(Cl)ccc1O | 270 to 275 °C |
| CCOc1ccc(-c2nc(-c3ccc(OC(C)=O)c(C(=O)O)c3)cs2)cc1OCC | 178 to 179 °C |
| O=C(O)Cc1cc(=O)n(Cc2ccc(Cl)cc2)c2ccccc12 | 208 to 209 °C |
| NC(=S)NN=C(CCC(=O)NC1CCCCC1)c1ccccc1 | 89 to 92 °C |
| CC(C)CCCC(C)Cc1cncn1Cc1ccccc1 (configuration not stated) | 61 to 62 °C |
| CC(C)(O)C(=O)Nc1ccc(Sc2ccccc2)cc1F | 91 to 92.5 °C |
| Cc1cn([C@H]2CC[C@@H]3CC(=O)N[C@H]2C3)c(=O)n(COCc2ccccc2)c1=O | 160 to 162 °C |
| Cc1nc(-c2ccc(C(F)(F)F)cc2)oc1COc1ccc(CCC(=O)O)cc1 | 98 to 100 °C |
| N#Cc1cc(-c2ccc3c(c2)C2(CCCC2)C(=O)N3)ccc1F | 264 to 266 °C |
| CC(C)CCC(Sc1ccccc1)c1c(O)cc(-c2ccccc2)oc1=O (configuration not stated) | 144 to 145 °C |
| CC(C)CN1C(=O)N(C)C2(NC(=O)NC2=O)c2cc(Cl)ccc21 (configuration not stated) | 118 °C |
| O=C(NC1N=C(c2ccccc2F)c2ccccc2-n2cnnc21)OCc1ccccc1 (configuration not stated) | 123 °C |
| COC(=O)c1ccc(-c2ccc3cc(OCc4ccccc4)c(C45CC6CC(CC(C6)C4)C5)cc3c2)s1 | 170 to 171 °C |
| COc1ccc(C(=O)C2CCC(CCO)CC2)cc1O (configuration not stated) | 107 to 109 °C |
| CSc1ccccc1C(=O)CBr | 81 to 82 °C |
| S=c1[nH]ccn1Cc1ccco1 | 106 to 108 °C |

| SMILES | melting point |
| --- | --- |
| CCOC(=O)C(C)(C#N)c1cccc(S(=O)(=O)c2ccccc2Cl)c1OC (configuration not stated) | 178 to 179 °C |
| CCc1c(C)nc2c(C)cccn2c1=O | 90 to 92 °C |
| CCc1ccc2c(n1)C(C(N)=S)CCC2 (configuration not stated) | 73 to 75 °C |
| COc1ccc2c(c1)c1c(n2C(=O)c2ccccc2)CCCC1C(=O)O (configuration not stated) | 157 to 159 °C |
| Cc1nc(C(=O)Nc2cccc(Oc3ccc4nc(NC(=O)C5CC5)cn4n3)c2)c(C)o1 | 224 °C |
| CC(C)C(=O)N1C2=NC(C)(C)N(C)C(=O)N2c2ccccc21 | 99 to 102 °C |
| Cc1c(F)c(N)cc(Br)c1F | 68 to 68.5 °C |
| CCNC(=O)c1cccc(-c2c(CC(=O)Nc3ccc(Cl)cc3C(F)(F)F)c(=O)oc3cc(Cl)c(C)cc23)c1 | 220 to 222 °C |
| COC(CCCNC(=O)CCCCCCCCC(=O)NCCCC(OC)OC)OC | 83.5 to 85.5 °C |
| OC(=S)CCC1CCN(Cc2ccc3c(c2)Nc2nccnc2S3)CC1 | 110 to 113 °C |
| O=C1CCCC(=O)N1c1cc(Cc2n[nH]c(=O)c3ccccc23)ccc1F | 259 to 263 °C |
| O=C(NCCc1c[nH]c2ccccc12)OCC1CC1 | 88 to 90 °C |
| COc1ccccc1N1CCN(CCCNC(=O)c2cc(OC(C)=O)cc3c(=O)c(C)c(-c4ccccc4)oc23)CC1 | 148 to 149 °C |
| Cc1nc(O)cc(C2(c3ccc(Cl)cc3)CCC2)n1 | 130 to 140 °C |
| Clc1cccc(Oc2ncccc2Br)c1 | 88 to 90 °C |
| CCOC(=O)N1CCOC(CC23CC(c4ccccc42)c2ccccc23)C1 (configuration not stated) | 143 to 144 °C |
| O=[N+]([O-])c1cc2c(Cl)ncnc2s1 | 112 °C |

Other lines, results leading:

| melting point | SMILES |
| --- | --- |
| 150 to 152 °C | CCn1cc(C(=O)O)c(=O)c2cc(F)c(N3CCN(C)C(c4cc[nH]c4)C3)cc21 (configuration not stated) |
| 155 to 157 °C | COc1ccc(OC(C)=O)c(C(=O)O)c1 |
| 188 °C | CC(C)(C)OC(=O)Nc1ccccc1NC(=O)c1nc2c(s1)CN(C(=O)OC(C)(C)C)CC2 |
| 213 to 215 °C | COc1ccc(-c2cnc(NS(=O)(=O)Cc3ccccc3)c(Cc3ccccc3)n2)cc1 |
| 150 to 151 °C | COc1ccc(C(=O)Cc2c(Cl)cncc2Cl)c2c1OCCCO2 |
| 108 to 110 °C | COC(=O)c1nc(NC(=O)CCCOc2cccc(CN3CCCCC3)c2)n(C)n1 |
| 240 to 242 °C | CCc1[nH]n(C2CCCC2)c2nc(Cc3ccc(OCc4nnn[nH]4)cc3)nc(=O)c1-2 |
| 228 °C | NS(=O)(=O)c1cccc(-c2cccc(-c3nc(-c4ccc(C(F)(F)F)c(F)c4)cc(C(F)(F)F)n3)c2)c1 |
| 108 °C | COc1nc(N)c(Cl)cc1C(=O)CCC1CCN(CC(C)(C)O)CC1 |
| 79 to 81 °C | COC(=O)C(=Cc1cc(OC)cc(OC)c1)c1ccc(Oc2ccc(CBr)cc2)cc1 |
| 128 to 129 °C | Nc1ccc(CP2(=O)OCCCCO2)cc1 |
| 131 °C | O=C(CCCCCN1CCN(c2ccc3c(c2)CCC3)CC1)N1Cc2ccccc2C1 |
| 93 to 94 °C | CCCCCCCCCCCCCCCCCCOc1cc(O)cc(C(=O)OC)c1 |
| 132 to 134 °C | COc1ccccc1NC(=O)Nc1ccc(CC(=O)OC(C)(C)C)cc1OC |
| 172 to 174 °C | CN(C(N)=O)c1nc(Cl)nc(Cl)n1 |
| 129 to 131 °C | CCOc1nn(CCOc2c(CC)cccc2CC(=O)O)cc1C(=O)NCc1ccc(Cl)cc1Cl |
| > 300 °C | Cc1c(C(=O)O)sc2ccc(Br)cc12 |
| 118 to 120 °C | CCOC(=O)c1c(C)cc2c(c1C)C(=O)OC2(C)O (configuration not stated) |
| 177 to 179 °C | COc1cn(-c2ccc(-n3nccc3OC(F)F)cc2F)nc(-c2ccnn2-c2ccccc2)c1=O |

| melting point | SMILES |
| --- | --- |
| 77 to 78 °C | COC(=O)N(C)C(=O)N(SC(Cl)Cl)c1ccccc1 |
| 198 to 202 °C | O=c1c2ccc(OCc3ccccc3)cc2[nH]c2c([N+](=O)[O-])ccc(Cl)c12 |
| 151 to 158 °C | C=CCNC(=O)CN1CCN(Cc2ccc3c(c2)NC(=O)C(C)O3)CC1 (configuration not stated) |
| 103 to 106 °C | CC(=O)Nc1cc(O)c(C(=O)CCCCl)cc1Cl |
| 102 to 104 °C | N#CC1c2ccccc2C=Cc2ccccc21 |
| 57 to 61 °C | CCCCCCCCCCCCn1nnnc1CCC(=O)Nc1c(OC)cc(OC)cc1OC |
| 129 to 131 °C | COc1ccc(C)cc1NC(=O)Nc1ccc(N2CCN(C(=O)Nc3ccc(OCCO)cc3Cl)C(C)C2)cc1 (configuration not stated) |
| 190 °C | CC1CCN(c2nc(N)c3ccccc3n2)CC1 |
| 149 to 155 °C | O=C(O)c1cc(Cl)ccc1COc1ccccc1 |
| 165 to 168 °C | Clc1nc(-n2ccnc2)c2ccccc2c1-c1ccccc1 |
| 130 to 131 °C | COc1ccc(C(=N)N(N)c2c(Cl)cncc2Cl)cc1OC1CCCC1 |
| 246 to 248 °C | O=C1CC(c2cccc(-n3ccnn3)c2)=Nc2ccc(C#Cc3ccc(F)cc3)cc2N1 |
| 66.5 to 67 °C | C=CCNC(=NC#N)NCC=C |
| 132 to 136 °C | CC(C)(C)C(=O)Nc1ccccc1-c1cc2ccccc2[nH]1 |
| 111 to 114 °C | CC(C)=CCCOc1c(-c2ccc(S(C)(=O)=O)cc2)cnn(-c2ccc(F)cc2)c1=O |
| 116 to 118 °C | CNC(=O)C(=NOC)c1cccc(Cl)c1COc1cc(C(F)(F)F)nc(OC(C)C)n1 |
| 131 to 132 °C | Cc1c(C2=NOC(CN3CCC(Cc4ccc(F)cc4)CC3)C2)cc2oc(=O)[nH]c2c1Cl (configuration not stated) |
| 169 to 172 °C | Oc1ccc2c(c1)CCN(Cc1ccc3c(c1)OCO3)C2 |
